Publication PMC4169639 (BMC Biology, 2014)

Columns and labels:
[1] = molecular target: T1, PCTP START domain (GSV-PCTP) (Homo sapiens, UniProt Q9UKL6); assay: IgG-bead immunoisolation from yeast lysate, LC-MS of bound metabolites; format: binding; settings: endogenous yeast metabolite, enriched over GV control
T1 sequence (Q9UKL6 1-212 limits assumed): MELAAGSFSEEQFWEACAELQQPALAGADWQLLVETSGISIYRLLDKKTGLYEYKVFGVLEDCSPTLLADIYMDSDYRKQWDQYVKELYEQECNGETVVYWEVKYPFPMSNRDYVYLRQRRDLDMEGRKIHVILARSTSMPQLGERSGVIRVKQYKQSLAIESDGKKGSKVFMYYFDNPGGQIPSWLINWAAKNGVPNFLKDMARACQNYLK

[2] = molecular target: T2, StAR START domain (GSV-StAR) (Mus musculus, UniProt P51557); assay: as above; format: binding; settings: endogenous yeast metabolite, enriched over GV control
T2 sequence (P51557 66-274 limits assumed): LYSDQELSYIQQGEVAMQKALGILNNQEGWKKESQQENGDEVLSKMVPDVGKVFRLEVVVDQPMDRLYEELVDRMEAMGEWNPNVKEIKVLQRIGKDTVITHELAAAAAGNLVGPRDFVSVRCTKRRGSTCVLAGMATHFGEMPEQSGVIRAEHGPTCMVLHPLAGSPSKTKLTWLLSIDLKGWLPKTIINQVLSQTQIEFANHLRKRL

| Structure (SMILES) | IgG-bead immunoisolation from yeast lysate, LC-MS of bound metabolites [1] | IgG-bead immunoisolation from yeast lysate, LC-MS of bound metabolites [2] |
| --- | --- | --- |
| CCCCC/C=C\C/C=C\CCCCCCCC(N)=O [linoleamide] | lipids including sphinganine, sphingosine, behenic acid and linoleamide |  |
| CC(C)=CCC/C(C)=C/CC/C(C)=C/CC/C=C(\C)CC/C=C(\C)CCC=C(C)C [squalene] | several metabolites that were shared with StAR (e.g. lanosterol, squalene | lanosterol and squalene, were also significantly enriched for the START domain from StAR |
| CC(C)=CCC[C@@H](C)[C@H]1CC[C@@]2(C)C3=C(CC[C@]12C)[C@@]1(C)CC[C@H](O)C(C)(C)[C@@H]1CC3 [lanosterol] | several metabolites that were shared with StAR (e.g. lanosterol, squalene | lanosterol and squalene, were also significantly enriched for the START domain from StAR |
